Laboratory results: patent EP2915814A2, “Crystalline salts of sitagliptin” (priority 2008, dated 2010)
Where a name gives a salt, the structure may show the parent alone. Read-outs that look alike come from different tables or passages of the source. Marks after values point to notes of the source that are not given here. One block for each compound: values may come before it.

What was measured:
[1] = Dissolution of salts (done on 1 capsule each); format: physicochemical; details: for Dissolution in capsule in acetate buffer pH 4.5 medium at 50 rpm at 10 min (% release as free base) / Dissolution in capsule in acetate buffer pH 4.5 medium at 50 rpm at 30 min (% release as free base): acetate buffer pH 4.5, 50 rpm; for Dissolution in capsule in phosphate buffer pH 7.4 medium at 50 rpm at 10 min (% release as free base) / Dissolution in capsule in phosphate buffer pH 7.4 medium at 50 rpm at 30 min (% release as free base): phosphate buffer pH 7.4, 50 rpm
Excerpt: Table 28: Dissolution results of salts (Done on 1 capsule each)

[2] = Hygroscopicity studies (water content after storage at 43 %, 75 % and 93 % relative humidity); format: physicochemical; details: for Initial water content: initial sample; for change during the hygroscopicity studies: 43 %, 75 % and 93 % relative humidity, confirmed by DSC of samples kept at 93 % relative humidity for 2 weeks; for Hygroscopicity 2 weeks 43 % rh: 2 weeks at 43 % rh; for Hygroscopicity 2 weeks 43 % rh / Hygroscopicity 2 weeks 75 % rh / Hygroscopicity 2 weeks 93 % rh: % Equilibrium moisture content, ss = semi solid state of sample, β = solid first changed into liquid and solidified again; for Hygroscopicity 2 weeks 75 % rh: 2 weeks at 75 % rh; for Hygroscopicity 2 weeks 93 % rh: 2 weeks at 93 % rh
Excerpt: The salts of the present invention and the free base were studied under three different humidity conditions (43 % relative humidity, 75 % relative humidity, and 93 % relative humidity).

[3] = Stability studies (storage at 60 °C in closed bottles or at 40 °C / 75 % RH in an open bottle; related substances by HPLC); details: for Initial Related Substances: before storage
[4] = solid; for Related Substances 4 w 40°C/75 % RH closed / Related Substances 4 w 40°C/75 % RH open / Related Substances 4 w 60°C Closed bottle: 672 h; for Related Substances 12 weeks 40°C/75 % RH closed bottle / Related Substances 12 weeks 40°C/75 % RH open bottle: 2016 h; for Related Substances 2 W 40°C/75 % RH open / Related Substances 2 W 60°C closed: 336 h; for Related Substances 2 W 60°C closed / Related Substances 4 w 60°C Closed bottle: closed bottle
pH of aqueous solution = format: physicochemical; details: 2 % aqueous solution
[5] = Solubility in water / aqueous solution; format: physicochemical; details: compared to other known salts of sitagliptin
[6] = Evaluation of sitagliptin salts for processability; details: for Appearance: powder
Excerpt: Table 29: Evaluation of different Sitagliptin salts for processability

Compound: Sitagliptin succinate Form I [F: Succinate I]
Hygroscopicity (water content) ([2]; 2 weeks 43 % rh): 1.36%
Hygroscopicity (water content) ([2]; 2 weeks 75 % rh): 1.78%
Hygroscopicity (water content) ([2]; 2 weeks 93 % rh): 19.58** %
Initial water content ([2]; before humidity storage): 0.90%
Initial Related Substances [3]: 0.14%
Related Substances 4 w 40°C/75 % RH closed [4]: 0.29%
Related Substances 12 weeks 40°C/75 % RH closed bottle [4]: 0.23%
Related Substances 2 W 40°C/75 % RH open [4]: 0.13%
Related Substances 4 w 40°C/75 % RH open [4]: 0.25%
Related Substances 12 weeks 40°C/75 % RH open bottle [4]: 0.16%
Related Substances 2 W 60°C closed [4]: 0.30%
Related Substances 4 w 60°C Closed bottle [4]: 0.58%

Compound: Sitagliptin Fumarate Form I [D:Fumarate I]
Hygroscopicity (water content) ([2]; 2 weeks 43 % rh): 1.058%
Hygroscopicity (water content) ([2]; 2 weeks 75 % rh): 1.078%
Hygroscopicity (water content) ([2]; 2 weeks 93 % rh): 1.168%
change during the hygroscopicity studies [2]: did not show much change
Initial water content ([2]; before humidity storage): 0.89%
Initial Related Substances [3]: 0%
Related Substances 4 w 40°C/75 % RH closed [4]: 0.07%
Related Substances 12 weeks 40°C/75 % RH closed bottle [4]: 0.13%
Related Substances 2 W 40°C/75 % RH open [4]: 0.01%
Related Substances 4 w 40°C/75 % RH open [4]: 0.06%
Related Substances 12 weeks 40°C/75 % RH open bottle [4]: 0.11%
Related Substances 2 W 60°C closed [4]: 0.01%
Related Substances 4 w 60°C Closed bottle [4]: 0.03%

Compound: N[C@@H](CC(=O)N1CCn2c(nnc2C(F)(F)F)C1)Cc1cc(F)c(F)cc1F [HCl II]
Dissolution in capsule in acetate buffer pH 4.5 medium at 50 rpm at 10 min (% release as free base) [1]: 93.89%
Dissolution in capsule in acetate buffer pH 4.5 medium at 50 rpm at 30 min (% release as free base) [1]: 100%
Dissolution in capsule in pH 6.8 buffer at 50 rpm at 10 min (% release as free base) [1]: 90.13%
Dissolution in capsule in pH 6.8 buffer at 50 rpm at 30 min (% Release as free base) [1]: 91.21%
Dissolution in capsule in phosphate buffer pH 7.4 medium at 50 rpm at 10 min (% release as free base) [1]: 93.63%
Dissolution in capsule in phosphate buffer pH 7.4 medium at 50 rpm at 30 min (% release as free base) [1]: 99.67%

Compound: Amorphous Sitagliptin Citrate [citrate (amorphous)]
solid form conversion on humidity storage ([2]; two weeks storage at 93% relative humidity): partial conversion into the respective crystalline form
Dissolution in capsule in pH 6.8 buffer at 50 rpm at 10 min (% release as free base) [1]: 62.4%
Dissolution in capsule in pH 6.8 buffer at 50 rpm at 30 min (% Release as free base) [1]: 89.47%
Dissolution in capsule in water medium at 50 rpm at 10 min (% release as free base) [1]: 75.89%
Dissolution in capsule in water medium at 50 rpm at 30 min (% release as free base) [1]: 94.23%

Compound: Sitagliptin Malate
change during the hygroscopicity studies [2]: did not show much change
Dissolution in capsule in pH 6.8 buffer at 50 rpm at 10 min (% release as free base) [1]: 84.72%
Dissolution in capsule in pH 6.8 buffer at 50 rpm at 30 min (% Release as free base) [1]: 90.94%
Dissolution in capsule in water medium at 50 rpm at 10 min (% release as free base) [1]: 90.22%
Dissolution in capsule in water medium at 50 rpm at 30 min (% release as free base) [1]: 98.89%

Now from value to compound, other results behind:

Dissolution in capsule in acetate buffer pH 4.5 medium at 50 rpm at 10 min (% release as free base) [1]: 48.08%
Dissolution in capsule in acetate buffer pH 4.5 medium at 50 rpm at 30 min (% release as free base) [1]: 98.48%
Dissolution in capsule in pH 6.8 buffer at 50 rpm at 10 min (% release as free base) [1]: 86.65%
Dissolution in capsule in pH 6.8 buffer at 50 rpm at 30 min (% Release as free base) [1]: 91.12%
Dissolution in capsule in phosphate buffer pH 7.4 medium at 50 rpm at 10 min (% release as free base) [1]: 80.81%
Dissolution in capsule in phosphate buffer pH 7.4 medium at 50 rpm at 30 min (% release as free base) [1]: 99.18%
Dissolution in capsule in water medium at 50 rpm at 10 min (% release as free base) [1]: 46.63%
Dissolution in capsule in water medium at 50 rpm at 30 min (% release as free base) [1]: 96.30%
Compound: N[C@@H](CC(=O)N1CCn2c(nnc2C(F)(F)F)C1)Cc1cc(F)c(F)cc1F [Phosphate H2O Ref]

hygroscopicity ([2]; prolonged storage at 93 % relative humidity): not hygroscopic
pH (pH of aqueous solution): 5.8 ± 0.1
stability (degradation, related substances by HPLC) ([3]; closed bottle, four weeks at 60 °C): excellent stability
Compound: N[C@@H](CC(=O)N1CCn2c(nnc2C(F)(F)F)C1)Cc1cc(F)c(F)cc1F [sitagliptin hydrochloride, Sitagliptin Hydrochloride Form II]

stability (degradation, related substances by HPLC) ([3]; closed bottle, four weeks at 60 °C, listed as sitagliptin hemisulphate): excellent stability
stability (degradation, related substances by HPLC) ([3]; closed bottle, two weeks at 60 °C): stable
solubility in water [5]: very high solubility in water
Compound: N[C@@H](CC(=O)N1CCn2c(nnc2C(F)(F)F)C1)Cc1cc(F)c(F)cc1F [sulfate (non solvated), Sitagliptin Sulfate Form II]
change during the hygroscopicity studies ([2]; listed as sitagliptin sulfate (non solvated)): increase in water content corresponding to conversion of hemihydrate to dihydrate

Hygroscopicity 2 weeks 43 % rh [2]: 3.69%
Hygroscopicity 2 weeks 75 % rh [2]: 3.67%
Hygroscopicity 2 weeks 93 % rh [2]: 3.73%
Initial water content ([2]; before storage): 3.59%
Flowability [6]: Good
Poured density, m/V0 [6]: 0.52 g/ml
Sticking tendency [6]: None
Tapped density, m/V1250 [6]: 0.57 g/mL
Apparent Volume V0 [6]: 190 mL
Apparent Volume V10 [6]: 185 mL
Apparent Volume V500 [6]: 175 mL
Apparent Volume V1250 [6]: 174 mL
Compound: N[C@@H](CC(=O)N1CCn2c(nnc2C(F)(F)F)C1)Cc1cc(F)c(F)cc1F [M: Phosphate]
Appearance [6]: White to off-white powder, fine powder, few agglomerates.

Hygroscopicity 2 weeks 43 % rh [2]: 2.59%
Hygroscopicity 2 weeks 75 % rh [2]: 7.1%
Hygroscopicity 2 weeks 93 % rh [2]: 7.33%
Initial water content ([2]; before storage): 1.88%
Related Substances 2 W 40°C/75 % RH open ([3]; 2 weeks, 40°C/75 % RH, open, 20160 min): 0.23%
Related Substances 2 W 60°C closed ([3]; 2 weeks, 60°C, closed, 20160 min): 0.20%
Related Substances 4 w 40°C/75 % RH closed ([3]; 4 weeks, 40°C/75 % RH, closed, 40320 min): 0.24%
Related Substances 4 w 40°C/75 % RH open ([3]; 4 weeks, 40°C/75 % RH, open, 40320 min): 0.36%
Related Substances 4 w 60°C Closed bottle ([3]; 4 weeks, 60°C, closed bottle, 40320 min): 0.31%
Related Substances 12 weeks 40°C/75 % RH closed bottle ([3]; 12 weeks, 40°C/75 % RH, closed bottle, 120960 min): 0.25%
Related Substances 12 weeks 40°C/75 % RH open bottle ([3]; 12 weeks, 40°C/75 % RH, open bottle, 120960 min): 0.46%
Initial Related Substances [3]: 0.20%
Flowability [6]: Good
Poured density, m/V0 [6]: 0.483 g/ml
Sticking tendency [6]: Very low
Tapped density, m/V1250 [6]: 0.508 g/mL
Apparent Volume V0 [6]: 40 mL
Apparent Volume V10 [6]: 40 mL
Apparent Volume V500 [6]: 38 mL
Apparent Volume V1250 [6]: 38 mL
Compound: N[C@@H](CC(=O)N1CCn2c(nnc2C(F)(F)F)C1)Cc1cc(F)c(F)cc1F [O: Sulfate II]
Appearance [6]: White to off-white powder with big, coarse and hard particles.
